Patent US11926613B2, “Kinase inhibitors for the treatment of central and peripheral nervous system disorders” (UNIVERSITY OF MIAMI, priority 2017, dated 2024)
Like-named read-outs stand apart in the source and are kept apart here.

Experiments:
[1] = tested on: neurons from hippocampi of E18 rat embryos; assay: Neurite growth length (% NTL) in cultured E18 rat hippocampal neurons, 9-point dose response, 48 hours; format: cell-based; conditions: for activity at 0.078 µM / activity at 0.156 µM / activity at 0.312 µM / activity at 0.625 µM / activity at 1.25 µM / activity at 2.5 µM / activity at 5 µM / activity at 10 µM / activity at 20 µM: Rattus norvegicus, Neuron, 48 h
Summary of the method: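 Dissociated E18 rat hippocampal neurons at 1500 cells/well on PDL were exposed 48 h to 9 concentrations from 20 μM down to 0.078125 μM. After PFA fixation and βIII-tubulin/Hoechst staining, ArrayScan imaging traced neurites in at least 200–300 neurons per condition to give % NTL.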

Primary Neurons = assay: HCS neurite outgrowth assay (High Content Screening with Primary Neurons); format: cell-based

Row | Structure (SMILES) | activity at 0.078 µM ([1]; 78 nM) [%] | activity at 0.156 µM ([1]; 156 nM) [%] | activity at 0.312 µM ([1]; 312 nM) [%] | activity at 0.625 µM ([1]; 625 nM) [%] | activity at 1.25 µM ([1]; 1.25 μM) [%] | activity at 2.5 µM ([1]; 2.5 μM) [%] | activity at 5 µM ([1]; 5 μM) [%] | activity at 10 µM ([1]; 10 μM) [%] | activity at 20 µM ([1]; 20 μM) [%] | EC50 (Primary Neurons; Primary neuron) [µM] | neurite growth length (% NTL) ([1]; 78 nM) | neurite growth length (% NTL) ([1]; 156 nM) | neurite growth length (% NTL) ([1]; 312 nM) | neurite growth length (% NTL) ([1]; 625 nM) | neurite growth length (% NTL) ([1]; 1.25 μM) | neurite growth length (% NTL) ([1]; 2.5 μM) | neurite growth length (% NTL) ([1]; 5 μM) | neurite growth length (% NTL) ([1]; 10 μM) | neurite growth length (% NTL) ([1]; 20 μM) | EC50 (Primary Neurons) [µM]
1 | COc1ccc(O)c(C(=O)c2ccc(C(=O)N[C@@H]3CCC[C@H]3NC(=O)c3ccncc3)cc2)c1F [Example A18, N-[(1R,2R)-2-[4-(2-fluoro-6-hydroxy-3-methoxybenzoyl)benzamido]cyclopentyl] pyridine-4-carboxamide] | 113 | 115 | 119 | 120 | 121 | 133 | 130 | 131 | 140 | 6.61 |  |  |  |  |  |  |  |  |  | 
2 | COc1ccc(OC)c(C(=O)c2ccc(C(=O)N[C@@H]3c4ccccc4C[C@H]3NC(=O)c3ccncc3)cc2)c1F [Example A12, N-[(1R,2R)-1-[4-(2-fluoro-3,6-dimethoxybenzoyl)benzamido]-2,3-dihydro-1H-inden-2-yl]pyridine-4-carboxamide] | 96.6 | 90.7 | 91.2 | 93.1 | 90.6 | 91 | 106 | 98.6 | 119 | > 20 |  |  |  |  |  |  |  |  |  | 
3 | COc1ccc(O)c(C(=O)c2ccc(C(=O)N[C@@H]3CNC[C@H]3NC(=O)c3ccc4c(cnn4C)c3)cc2)c1F [Example A53, N-[(3R,4R)-4-[4-(2-fluoro-6-hydroxy-3-methoxybenzoyl)benzamido]pyrrolidin-3-yl]-1-methyl-1H-indazole-5-carboxamide] | 90 | 82.5 | 79.3 | 76.3 | 85.8 | 88.5 | 90.1 | 91.9 | 70 | 0.814 |  |  |  |  |  |  |  |  |  | 
4 | COc1ccc(O)c(C(O)c2ccc(C(=O)N[C@@H]3CNC[C@H]3NC(=O)c3ccncc3)cc2)c1F (stereo partly drawn) [Example A59, N-[(3R,4R)-4-{4-[(2-fluoro-6-hydroxy-3-methoxyphenyl)(hydroxy)methyl]benzamido}pyrrolidin-3-yl]pyridine-4-carboxamide] | 91.9 | 82.8 | 73.6 | 82.3 | 76.7 | 91.2 | 95.4 | 111 | 106 | 7.13 |  |  |  |  |  |  |  |  |  | 
5 | COc1ccc(O)c(C(=O)c2ccc(C(=O)N3CCN(C(=O)c4ccncc4)CC3)cc2)c1F [Example A9, 3-fluoro-4-methoxy-2-{4-[4-(pyridine-4-carbonyl)piperazine-1-carbonyl]benzoyl}phenol] | 94.5 | 91.5 | 90.7 | 96.6 | 88 | 98.9 | 98.3 | 89.6 | 89.1 | 4.92 |  |  |  |  |  |  |  |  |  | 
6 | COc1ccc(OC)c(C(=O)c2ccc(C(=O)O[C@@H]3CN(C)C[C@H]3NC(=O)c3ccncc3)cc2)c1F [Example A28, (3R,4R)-1-methyl-4-(pyridine-4-amido)pyrrolidin-3-yl 4-(2-fluoro-3,6-dimethoxybenzoyl)benzoate] | 97.8 | 113 | 103 | 83.7 | 103 | 118 | 133 | 137 | 139 | 4.72 |  |  |  |  |  |  |  |  |  | 
7 | COc1ccc(O)c(C(=O)c2ccc(C(=O)N[C@@H]3CNC[C@H]3NC(=O)c3ccc4c(c3)CC(=O)N4)cc2)c1F [Example A35, N-[(3R,4R)-4-[4-(2-fluoro-6-hydroxy-3-methoxybenzoyl)benzamido]pyrrolidin-3-yl]-2-oxo-2,3-dihydro-1H-indole-5-carboxamide] | 91.8 | 90.1 | 86.3 | 89.3 | 86.9 | 95 | 97.2 | 96.7 | 107 | 0.163 |  |  |  |  |  |  |  |  |  | 
8 | Nc1nccc(C(=O)N[C@@H]2CNC[C@H]2NC(=O)c2ccc(C(=O)c3ccccc3O)c(Cl)c2)n1 [Example A66, 2-amino-N-[(3R,4R)-4-[3-chloro-4-(2-hydroxybenzoyl)benzamido]pyrrolidin-3-yl]pyrimidine-4-carboxamide] | 113 | 107 | 122 | 111 | 122 | 129 | 129 | 145 | 161 | 2.33 |  |  |  |  |  |  |  |  |  | 
9 | O=C(N[C@@H]1CNC[C@H]1NC(=O)c1ccc(C(=O)c2ccccc2O)c(Cl)c1)c1ccncc1 [Example A67, N-[(3R,4R)-4-[3-chloro-4-(2-hydroxybenzoyl)benzamido]pyrrolidin-3-yl]pyridine-4-carboxamide] | 94.2 | 97.9 | 104 | 104 | 112 | 106 | 108 | 120 | 128 | > 20 |  |  |  |  |  |  |  |  |  | 
10 | COc1ccc(O)c(C(=O)c2ccc(C(=O)N[C@@H]3CNC[C@H]3NC(=O)c3ccncc3)cc2)c1 [Example A77, N-[(3R,4R)-4-[4-(2-hydroxy-5-methoxybenzoyl)benzamido]pyrrolidin-3-yl]pyridine-4-carboxamide] | 118 | 125 | 133 | 144 | 159 | 187 | 263 | 469 | 653 | 10.4 |  |  |  |  |  |  |  |  |  | 
11 | COc1ccc(O)c(C(=O)c2ccc(C(=O)NC3CNC[C@H]3NC(=O)c3ccncc3)cc2)c1F (stereo in doubt) [Example A32, N-[(3R,4S)-4-[4-(2-fluoro-6-hydroxy-3-methoxybenzoyl)benzamido]pyrrolidin-3-yl]pyridine-4-carboxamide] |  |  |  |  |  |  |  |  |  |  | 98.72 | 86.89 | 88.20 | 84.61 | 81.36 | 90.59 | 88.24 | 82.90 | 86.59 | > 20
12 | COc1ccc(O)c(C(=O)c2ccc(C(=O)N[C@@H]3CNC[C@H]3NC(=O)Cc3cccnc3)cc2)c1F [Example A46, 4-(2-fluoro-6-hydroxy-3-methoxybenzoyl)-N-[(3R,4R)-4-[2-(pyridin-3-yl)acetamido]pyrrolidin-3-yl]benzamide] | 95.6 | 95 | 90.8 | 77.5 | 93.1 | 86.8 | 88.1 | 100 | 90.2 | 1.65 |  |  |  |  |  |  |  |  |  | 
13 | COc1ccc(O)c(C(=O)c2ccc(C(=O)Nc3ccncc3NC(=O)c3ccncc3)cc2)c1F [Example A2, N-{4-[4-(2-fluoro-6-hydroxy-3-methoxybenzoyl)benzamido]pyridin-3-yl}pyridine-4-carboxamide] | 93.8 | 96.2 | 84.6 | 93 | 88.9 | 91.1 | 94.1 | 93.4 | 100 | 1.81 |  |  |  |  |  |  |  |  |  | 
14 | COc1ccc(O)c(C(=O)c2ccc(C(=O)N[C@@H]3CNC[C@H]3NC(=O)c3ccnc(O)c3)cc2)c1F [Example A40, N-[(3R,4R)-4-[4-(2-fluoro-6-hydroxy-3-methoxybenzoyl)benzamido]pyrrolidin-3-yl]-2-hydroxypyridine-4-carboxamide] | 86.3 | 91.2 | 86.2 | 86.2 | 94.1 | 108 | 101 | 106 | 121 | 9.62 |  |  |  |  |  |  |  |  |  | 
15 | COc1ccc(OC)c(C(=O)c2ccc(C(=O)Nc3ccccc3NC(=O)c3ccncc3)cc2)c1F [Example A4, N-{2-[4-(2-fluoro-3,6-dimethoxybenzoyl)benzamido]phenyl}pyridine-4-carboxamide] | 102 | 99 | 110 | 93.2 | 105 | 114 | 114 | 132 | 161 | 9.64 |  |  |  |  |  |  |  |  |  | 
16 | O=C(N[C@@H]1CNC[C@H]1NC(=O)c1ccc(C(=O)c2ccccc2O)cc1)c1ccncc1 [Example A86, N-[(3R,4R)-4-[4-(2-hydroxybenzoyl)benzamido]pyrrolidin-3-yl]pyridine-4-carboxamide] | 124 | 135 | 126 | 134 | 136 | 158 | 185 | 271 | 379 | 11.9 |  |  |  |  |  |  |  |  |  | 
